Patent US20180312539A1, “METHODS FOR PREPARING HIGH THROUGHPUT PEPTIDOMIMETICS, ORALLY BIOAVAILABLE DRUGS AND COMPOSITIONS CONTAINING SAME” (University of Southern California, priority 2011, published 2018)

Experiments:
[1] = Human serum digests; assay type: in vitro ADME; conditions: reconstituted human serum, 37° C
Experimental: Delipidated/lyophilized human serum was purchased from Thermo Scientific and reconstituted as per manufacturer's instructions. 250 nmoles of peptide in 50 μLs of sodium phosphate buffer (pH=8.0) with 10% DMSO was added to 1 mL of reconstituted serum and incubated at 37° C. 100 μL aliquots were taken at various time points and quenched in 300 μLs of acetonitrile. Samples were spun down and decanted to remove precipitate followed by dilution in water to 1.5 mLs. Samples were then analyzed by HPLC as described in the protease resistance experiment.
Delipidated/lyophilized human serum was purchased from Thermo Scientific and reconstituted as per manufacturer's instructions. 250 nmoles of peptide in 50 μL of sodium phosphate buffer (pH=8.0) with 10% DMSO was added to 1 mL of reconstituted serum and incubated at 37° C. 100 μL aliquots were taken at various time points and quenched in 300 μL of acetonitrile. Samples were spun down and decanted to remove precipitate followed by dilution in water to 1.5 mLs.
The human serum and human microsome stability of the Gαi1 binding SUPR peptide ([…] (SEQ ID NO: 7)) were compared to the peptides ability to bind to Her-2. Beginning with the human serum analysis, peptides were digested with 95% human serum at 37° C. Analysis was performed by HPLC. […] Therefore, intact peptide is only completely unmodified peptide. Digestions of SUPR, HMP, and PMP are show have lives very similar to SUPR. Digestion of PMP2 is in progress. Without being bound by theory, Applicants theorize that the fitting for HMP may have produced an artificially low half-life.

[2] = mouse, iv
Experimental: 200 μL of peptide was administered by IV injection into the tail vein of C57BL6 mice at a dose of 10 mg/kg. 50 μL blood samples were taken at various time points by orbital bleeding using heparin coated capillary tubes and isoflurane for anesthesia. Samples are diluted to 600 μLin TE buffer (pH=8.0) then filtered by centrifugation through a 3000 MWCO filter. The flowthrough was analyzed on a Shimadzu RF-5301 PC fluorometer. Time points were integrated and analyzed using Prism 5.0 software.
To that end mice were administered peptide conjugated to fluorescein by IV injection into the tail vein. Blood samples were taken by orbital bleeding. Blood peptide concentration was determined by comparing fluorescence to a 15 minute time point.

[3] = target: proteinase K (Parengyodontium album, UniProt P06873)
Experimental: Immobilized chymotrypsin and proteinase K purchased from Sigma. 250 nmoles of peptide in DMSO were added to 50 mM sodium phosphate buffer (pH=8.0) with a final DMSO concentration of 2%. […] The graph was generated by fitting the data to a one phase exponential decay equation (GraphPad Prism 5.0).
Protease resistance enhancement was then tested. The simplest solution for enhancing protease resistance would be the removal of amino acids recognized by protease K and chymotrypsin.
Next the role of each of the N-methyl alanines was analyzed independently. […] For example sequence modifications, including N-methylation would be accomplished one amino acid at a time, walking the peptide from low protease stability to high stability. Whether this is a viable approach for making a peptide like SUPR was investigated. Towards that end, Applicants walked back from SUPR peptide to something closer to cycGIBP, and to determine if there was a gradual decrease in protease resistance. Towards that end, three peptides were synthesized. Two of them contained only one NMA (alanine was substituted for NMA), and the other had no NMA. It was hypothesized that if one could walk back to cycGIBP, then one would expect the loss of a single N-methyl to have some effect on reducing protease resistance, but to still be better than cycGIBP.

proteinase K, sequence (P06873 106-384): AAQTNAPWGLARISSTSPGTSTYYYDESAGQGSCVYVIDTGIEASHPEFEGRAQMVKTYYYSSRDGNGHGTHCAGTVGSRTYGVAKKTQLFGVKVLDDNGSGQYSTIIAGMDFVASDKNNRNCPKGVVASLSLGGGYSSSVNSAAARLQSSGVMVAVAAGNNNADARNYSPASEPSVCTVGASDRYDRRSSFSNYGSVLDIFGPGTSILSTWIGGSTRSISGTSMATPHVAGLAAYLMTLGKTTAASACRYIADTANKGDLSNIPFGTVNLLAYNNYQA

## CSCC[C@@H]1NC(=O)CCCC(=O)NCCCC[C@@H](C(N)=O)NC(=O)[C@H](CO)NC(=O)[C@H](Cc2c[nH]c3ccccc23)NC(=O)[C@H](CCC(N)=O)NC(=O)[C@H](C)N(C)C(=O)[C@H](Cc2ccc(O)cc2)NC(=O)[C@H](CCC(=O)O)NC(=O)[C@H](Cc2ccc(O)cc2)NC(=O)[C@H](C)N(C)C(=O)[C@H](Cc2ccc(O)cc2)NC(=O)[C@H](Cc2ccccc2)NC1=O [cycSUPR]
[1]
  half-life: 160 h
[2]
  fold increase in in vivo half-life over cycGIBP: roughly 35 fold
[3]
  fold more resistant to proteinase K: approximately 5200 fold
[3]; seven theoretical digest sites
  digest sites found from proteinase K: 1
